In patent US9845313B2, “Cycloalkane derivatives” (Daiichi Sankyo Company, Limited, priority 2012, dated 2017):

Assays:
hNav1.7 = hNav1.7 (Homo sapiens (Human), UniProt Q15858); assay: Electrophysiological evaluation, automated patch clamp IonWorks Quattro, hNav 1.7/β1/β2 HEK293A cells; type: cell-based; settings: response caused by the second depolarization pulse (pre-pulse potential set to V1/2); HEK293A hNav 1.7/β1/β2 cells; Population Patch Clamp
[1] = system: patients of painful diabetic neuropathy; settings: cited from earlier work

Chain of hNav1.7 (Q15858 whole entry): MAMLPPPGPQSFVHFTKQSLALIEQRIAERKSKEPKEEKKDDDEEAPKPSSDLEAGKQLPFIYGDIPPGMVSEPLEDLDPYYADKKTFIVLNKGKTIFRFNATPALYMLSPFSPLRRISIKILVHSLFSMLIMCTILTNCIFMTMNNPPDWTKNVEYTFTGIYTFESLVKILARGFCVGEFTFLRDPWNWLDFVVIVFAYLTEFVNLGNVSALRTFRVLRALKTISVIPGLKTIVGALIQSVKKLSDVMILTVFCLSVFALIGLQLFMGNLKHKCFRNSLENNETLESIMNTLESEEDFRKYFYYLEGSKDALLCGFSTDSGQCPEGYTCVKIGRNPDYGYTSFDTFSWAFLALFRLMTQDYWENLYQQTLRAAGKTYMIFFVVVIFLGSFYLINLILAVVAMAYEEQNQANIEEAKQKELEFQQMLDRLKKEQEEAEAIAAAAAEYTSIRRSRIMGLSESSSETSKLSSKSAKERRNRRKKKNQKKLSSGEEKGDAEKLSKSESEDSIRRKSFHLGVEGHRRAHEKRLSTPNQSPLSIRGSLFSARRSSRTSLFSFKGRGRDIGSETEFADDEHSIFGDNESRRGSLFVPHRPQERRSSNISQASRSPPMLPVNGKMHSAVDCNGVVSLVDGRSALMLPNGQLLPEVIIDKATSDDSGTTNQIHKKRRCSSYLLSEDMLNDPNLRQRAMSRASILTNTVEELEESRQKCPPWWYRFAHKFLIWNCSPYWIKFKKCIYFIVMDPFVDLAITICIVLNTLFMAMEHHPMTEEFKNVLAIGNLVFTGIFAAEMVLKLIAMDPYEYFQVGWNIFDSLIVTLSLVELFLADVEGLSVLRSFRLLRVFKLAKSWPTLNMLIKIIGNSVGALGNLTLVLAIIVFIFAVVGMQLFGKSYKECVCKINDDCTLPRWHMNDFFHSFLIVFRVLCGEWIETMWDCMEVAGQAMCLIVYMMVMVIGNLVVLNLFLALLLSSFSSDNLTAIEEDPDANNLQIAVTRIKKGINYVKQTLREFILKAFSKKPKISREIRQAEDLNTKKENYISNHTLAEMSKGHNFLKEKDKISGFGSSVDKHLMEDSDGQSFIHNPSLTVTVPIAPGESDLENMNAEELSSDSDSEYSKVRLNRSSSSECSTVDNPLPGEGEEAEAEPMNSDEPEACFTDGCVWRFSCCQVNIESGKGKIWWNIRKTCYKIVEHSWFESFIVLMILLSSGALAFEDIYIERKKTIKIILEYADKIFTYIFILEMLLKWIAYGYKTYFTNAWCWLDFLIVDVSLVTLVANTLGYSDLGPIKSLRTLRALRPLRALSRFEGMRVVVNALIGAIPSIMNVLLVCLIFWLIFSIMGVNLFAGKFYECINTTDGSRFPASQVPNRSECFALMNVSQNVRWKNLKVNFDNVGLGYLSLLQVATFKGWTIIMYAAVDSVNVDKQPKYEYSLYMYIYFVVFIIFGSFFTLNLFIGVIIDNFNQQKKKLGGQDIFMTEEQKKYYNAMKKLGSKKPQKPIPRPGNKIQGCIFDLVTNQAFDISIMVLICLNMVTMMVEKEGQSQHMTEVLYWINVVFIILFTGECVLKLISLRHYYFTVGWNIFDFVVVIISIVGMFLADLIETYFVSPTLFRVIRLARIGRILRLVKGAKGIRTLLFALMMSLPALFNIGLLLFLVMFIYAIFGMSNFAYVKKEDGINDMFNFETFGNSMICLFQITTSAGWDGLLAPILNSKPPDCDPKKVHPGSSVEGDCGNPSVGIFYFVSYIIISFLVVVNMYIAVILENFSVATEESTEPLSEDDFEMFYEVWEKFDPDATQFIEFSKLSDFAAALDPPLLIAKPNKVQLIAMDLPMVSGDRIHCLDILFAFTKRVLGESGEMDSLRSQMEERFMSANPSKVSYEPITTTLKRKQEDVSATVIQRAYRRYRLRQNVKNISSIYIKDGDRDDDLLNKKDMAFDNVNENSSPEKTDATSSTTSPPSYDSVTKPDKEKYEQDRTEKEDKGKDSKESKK
Chain of hNav1.7 (Q07699 19-218 partner): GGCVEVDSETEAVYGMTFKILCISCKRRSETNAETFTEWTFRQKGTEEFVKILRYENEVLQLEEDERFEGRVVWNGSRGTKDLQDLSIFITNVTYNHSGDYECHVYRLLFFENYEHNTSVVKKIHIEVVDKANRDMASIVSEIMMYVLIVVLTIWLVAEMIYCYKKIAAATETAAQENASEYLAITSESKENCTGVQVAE
Chain of hNav1.7 (O60939 30-215 partner): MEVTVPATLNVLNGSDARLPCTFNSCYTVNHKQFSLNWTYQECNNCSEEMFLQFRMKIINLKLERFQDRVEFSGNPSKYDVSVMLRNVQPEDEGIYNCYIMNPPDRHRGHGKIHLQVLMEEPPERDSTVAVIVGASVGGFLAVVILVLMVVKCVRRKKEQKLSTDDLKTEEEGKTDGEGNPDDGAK

O=S(=O)(Nc1ncns1)c1cc(F)c(O[C@@H]2CCCC[C@@H]2c2ccccc2)cc1F (relative stereo) [Example 3, 2,5-Difluoro-4-{[(1R*,2R*)-2-phenylcyclohexyl]oxy}-N-(1,2,4-thiadiazol-5-yl)benzenesulfonamide]
IC50 (hNav1.7): 270 nM

CC(C)C[C@H](CN)CC(=O)O [pregabalin]
effective therapeutic ratio based on self-evaluation of patients [1]: approximately 50%
